From PubChem BioAssay (NCI)
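Grown in 96-well plates, cells were treated for 48 hours with each compound at five concentrations. Insufficient inhibition: endpoint recorded as highest concentration tested. GI50: concentration for 50% inhibition of growth. TGI denotes the concentration required for complete inhibition of growth.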

Legend:
Assay in all cases: NCI tumour cell line growth inhibition, 48 h
SR leukemia = tested on: SR leukemia
RPMI-8226 leukemia = tested on: RPMI-8226 leukemia
SNB-75 CNS = tested on: SNB-75 CNS
KM12 colon = tested on: KM12 colon
UACC-62 melanoma = tested on: UACC-62 melanoma
SF-268 CNS = tested on: SF-268 CNS
M14 melanoma = tested on: M14 melanoma
NCI-H522 lung = tested on: NCI-H522 lung
A498 renal = tested on: A498 renal
MDA-MB-435 = tested on: MDA-MB-435
OVCAR-5 ovarian = tested on: OVCAR-5 ovarian
786-0 renal = tested on: 786-0 renal
HOP-62 NSCLC = tested on: HOP-62 NSCLC
SK-OV-3 ovarian = tested on: SK-OV-3 ovarian
UACC-257 melanoma = tested on: UACC-257 melanoma
MDA-MB-231 breast = tested on: MDA-MB-231 breast
COLO 205 colon = tested on: COLO 205 colon
SN12C renal = tested on: SN12C renal
MOLT-4 leukemia = tested on: MOLT-4 leukemia
HCT-116 colon = tested on: HCT-116 colon
CAKI-1 renal = tested on: CAKI-1 renal
CCRF-CEM leukemia = tested on: CCRF-CEM leukemia
HT29 colon = tested on: HT29 colon
HCC-2998 colon = tested on: HCC-2998 colon
HOP-92 NSCLC = tested on: HOP-92 NSCLC
SW-620 colon = tested on: SW-620 colon
OVCAR-4 ovarian = tested on: OVCAR-4 ovarian
OVCAR-8 ovarian = tested on: OVCAR-8 ovarian
HS 578T breast = tested on: HS 578T breast

SMILES: COc1ccc([C@H]2C(C(=O)c3ccc(Cl)cc3)C3(N[C@@H]2c2ccccc2)C(=O)Nc2ccc(Br)cc23)cc1 (stereo partly drawn)
- GI50 (SR leukemia): 12.8 µM
- TGI (SR leukemia): 35.8 µM
- GI50 (RPMI-8226 leukemia): 14.3 µM
- TGI (RPMI-8226 leukemia): 41 µM
- GI50 (SNB-75 CNS): 8.73 µM
- TGI (SNB-75 CNS): 35.4 µM
- GI50 (KM12 colon): 11.5 µM
- TGI (KM12 colon): 25.5 µM
- GI50 (UACC-62 melanoma): 8.75 µM
- TGI (UACC-62 melanoma): 16.7 µM
- GI50 (SF-268 CNS): 14.4 µM
- TGI (SF-268 CNS): 49.7 µM
- GI50 (M14 melanoma): 9.18 µM
- TGI (M14 melanoma): 19.1 µM
- GI50 (NCI-H522 lung): 8.97 µM
- TGI (NCI-H522 lung): 20.8 µM
- GI50 (A498 renal): 10.5 µM
- TGI (A498 renal): 24.8 µM
- GI50 (MDA-MB-435): 10.2 µM
- TGI (MDA-MB-435): 20.4 µM
- GI50 (OVCAR-5 ovarian): 9.8 µM
- TGI (OVCAR-5 ovarian): 19.1 µM
- GI50 (786-0 renal): 12.4 µM
- TGI (786-0 renal): 32.3 µM
- GI50 (HOP-62 NSCLC): 8.59 µM
- TGI (HOP-62 NSCLC): 16.5 µM
- GI50 (SK-OV-3 ovarian): 12.3 µM
- TGI (SK-OV-3 ovarian): 36.8 µM
- GI50 (UACC-257 melanoma): 10.5 µM
- TGI (UACC-257 melanoma): 27.9 µM
- GI50 (MDA-MB-231 breast): 8.88 µM
- TGI (MDA-MB-231 breast): 16.5 µM
- GI50 (COLO 205 colon): 8.35 µM
- TGI (COLO 205 colon): 16 µM
- GI50 (SN12C renal): 8.53 µM
- TGI (SN12C renal): 16 µM
- GI50 (MOLT-4 leukemia): 14.8 µM
- TGI (MOLT-4 leukemia): 47.2 µM
- GI50 (HCT-116 colon): 9.7 µM
- TGI (HCT-116 colon): 18.5 µM
- GI50 (CAKI-1 renal): 13.1 µM
- TGI (CAKI-1 renal): 42.4 µM
- GI50 (CCRF-CEM leukemia): 14.4 µM
- TGI (CCRF-CEM leukemia): 40.5 µM
- GI50 (HT29 colon): 9.03 µM
- TGI (HT29 colon): 17.1 µM
- GI50 (HCC-2998 colon): 8.82 µM
- TGI (HCC-2998 colon): 17.9 µM
- GI50 (HOP-92 NSCLC): 8.27 µM
- TGI (HOP-92 NSCLC): 19.7 µM
- GI50 (SW-620 colon): 13.9 µM
- TGI (SW-620 colon): 44.8 µM
- GI50 (OVCAR-4 ovarian): 13 µM
- TGI (OVCAR-4 ovarian): 42.4 µM
- GI50 (OVCAR-8 ovarian): 9.68 µM
- TGI (OVCAR-8 ovarian): 20.4 µM
- GI50 (HS 578T breast): 9.96 µM
- TGI (HS 578T breast): 26.6 µM
